From patent US20110191867A1

Test system: serum antibodies of test subjects

For “Biotin-aminocaproyl-CRSKVNGQCG-NH4 [Peptide 2C]”, the serum reactions was “Strongest reactivities”.
